Experiments:
Assay in all cases: apparent steady-state kinetics of F420H2-dependent alkene reduction
[1] = target: T1, MSMEG_2850 (Mycolicibacterium smegmatis, UniProt A0QW82); format: biochemical; details: substrate inhibition constant; co-substrate F420H2
T1 sequence (A0QW82 1-140): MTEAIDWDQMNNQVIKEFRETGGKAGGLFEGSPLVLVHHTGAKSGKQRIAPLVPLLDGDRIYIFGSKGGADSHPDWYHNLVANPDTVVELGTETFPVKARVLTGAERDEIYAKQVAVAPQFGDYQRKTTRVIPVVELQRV

[2] = target: T2, MSMEG_2027 (Mycolicibacterium smegmatis, UniProt A0QU01); format: biochemical; details: substrate inhibition constant; co-substrate F420H2
T2 sequence (A0QU01 1-140): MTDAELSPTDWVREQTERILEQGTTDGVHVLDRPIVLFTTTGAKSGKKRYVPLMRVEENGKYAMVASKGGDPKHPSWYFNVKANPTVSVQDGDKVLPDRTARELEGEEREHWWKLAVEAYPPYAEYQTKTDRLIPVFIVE

[3] = target: T1, MSMEG_2850; details: co-substrate F420H2; apparent value

| Structure (SMILES) | Ki [1] [mM] | Ki [2] [mM] | Km [3] [µM] |
| --- | --- | --- | --- |
| CC1=CC(=O)CC(C)(C)C1=O [7a, ketoisophorone] | 47.9 ± 10.0 | 26.9 ± 11.4 |  |
| CC1=CC(=O)[C@H]2C[C@@H]1C2(C)C [9a, (1S,5S)-(-)-verbenone] |  |  | 180 ± 30 |
